The target in one assay is 12-lipoxygenase (12-LO) (Homo sapiens, UniProt P18054). The experiment in a line: 12-HETE biosynthesis. In kind it is cell-based.
The next assay concerns the target T1, 5-lipoxygenase (5-LO) (Homo sapiens, UniProt P09917).
T1 sequence (P09917 1-674): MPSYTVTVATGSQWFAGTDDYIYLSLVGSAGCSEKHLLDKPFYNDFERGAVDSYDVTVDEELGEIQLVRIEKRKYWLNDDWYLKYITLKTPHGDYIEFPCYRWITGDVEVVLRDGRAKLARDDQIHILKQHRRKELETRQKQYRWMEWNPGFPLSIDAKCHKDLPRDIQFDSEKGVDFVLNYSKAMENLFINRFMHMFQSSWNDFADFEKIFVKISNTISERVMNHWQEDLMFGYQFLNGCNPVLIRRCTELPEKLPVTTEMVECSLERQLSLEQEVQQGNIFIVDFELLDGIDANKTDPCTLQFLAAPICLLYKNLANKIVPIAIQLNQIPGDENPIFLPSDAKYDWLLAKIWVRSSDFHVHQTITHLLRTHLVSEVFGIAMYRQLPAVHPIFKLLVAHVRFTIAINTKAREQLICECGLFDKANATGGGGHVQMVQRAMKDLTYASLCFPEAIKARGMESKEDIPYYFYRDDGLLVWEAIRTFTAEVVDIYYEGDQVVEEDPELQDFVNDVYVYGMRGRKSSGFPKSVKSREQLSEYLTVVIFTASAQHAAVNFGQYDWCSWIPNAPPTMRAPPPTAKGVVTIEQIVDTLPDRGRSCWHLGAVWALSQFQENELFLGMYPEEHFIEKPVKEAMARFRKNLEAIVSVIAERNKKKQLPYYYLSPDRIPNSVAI
T1 sequence (P20292 1-161 partner): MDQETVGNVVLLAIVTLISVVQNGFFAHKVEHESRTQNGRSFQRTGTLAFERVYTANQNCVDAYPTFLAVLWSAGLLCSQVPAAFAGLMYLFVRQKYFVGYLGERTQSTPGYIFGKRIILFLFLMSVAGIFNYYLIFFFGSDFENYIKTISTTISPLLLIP
The experiment in a line: 5-LO product biosynthesis. The format is cell-based.

Sequence of 12-lipoxygenase (12-LO) (P18054 whole entry): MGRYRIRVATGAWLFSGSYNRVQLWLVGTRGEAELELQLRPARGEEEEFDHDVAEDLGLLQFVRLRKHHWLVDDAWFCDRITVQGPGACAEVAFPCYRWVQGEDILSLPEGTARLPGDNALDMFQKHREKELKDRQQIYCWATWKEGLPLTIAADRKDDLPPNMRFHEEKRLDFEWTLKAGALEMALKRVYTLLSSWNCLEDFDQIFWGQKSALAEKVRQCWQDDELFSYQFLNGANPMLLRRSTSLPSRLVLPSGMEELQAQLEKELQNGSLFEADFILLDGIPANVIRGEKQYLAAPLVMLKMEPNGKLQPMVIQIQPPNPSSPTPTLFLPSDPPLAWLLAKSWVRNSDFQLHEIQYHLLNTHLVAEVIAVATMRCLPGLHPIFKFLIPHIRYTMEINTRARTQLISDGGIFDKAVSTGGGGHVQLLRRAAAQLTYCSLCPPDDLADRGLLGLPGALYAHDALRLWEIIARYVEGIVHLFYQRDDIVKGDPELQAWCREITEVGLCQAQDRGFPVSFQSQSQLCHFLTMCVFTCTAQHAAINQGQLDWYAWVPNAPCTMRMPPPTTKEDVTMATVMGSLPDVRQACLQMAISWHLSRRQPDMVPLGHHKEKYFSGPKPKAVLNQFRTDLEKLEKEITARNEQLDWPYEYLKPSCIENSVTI

One may read the IC50 as the concentration that inhibits the measured activity by half. A high value points to a need for much substance. Take `O=C(/C=C/c1ccc(O)c(O)c1)OCCc1ccccc1` [compound 1, Caffeic acid phenethyl ester]: at 12-lipoxygenase (12-LO), the “% remaining at 1 μM” value came out at 74.3. The midpoint of inhibition at 5-lipoxygenase (5-LO), the IC50, lay at 1 µM.
